Experimental data published in patent US7951815B2, “Substituted 1,4,8-triazaspiro [4,5]decan-2-one compounds” (Gruenenthal GmbH, priority 2004, dated 2011).
Read-outs that look alike come from different tables or passages of the source.

Legend:
NA transporter = test: Inhibition of noradrenaline uptake in rat brain synaptosomes; format: biochemical; conditions: Table III
5-HT transporter = target: T1, 5-HT transporter (Rattus norvegicus, UniProt P31652); test: Inhibition of 5-HT uptake in rat brain synaptosomes; format: biochemical; conditions: read-out: Uptake 5-HT, % inhibition, rat, 1 μM
T1 construct: synaptosomes of rat brain areas are freshly isolated; from tissue; host or cells: rat brain synaptosomes (P2 fraction) from marrow and pons
T1 sequence (P31652 whole entry): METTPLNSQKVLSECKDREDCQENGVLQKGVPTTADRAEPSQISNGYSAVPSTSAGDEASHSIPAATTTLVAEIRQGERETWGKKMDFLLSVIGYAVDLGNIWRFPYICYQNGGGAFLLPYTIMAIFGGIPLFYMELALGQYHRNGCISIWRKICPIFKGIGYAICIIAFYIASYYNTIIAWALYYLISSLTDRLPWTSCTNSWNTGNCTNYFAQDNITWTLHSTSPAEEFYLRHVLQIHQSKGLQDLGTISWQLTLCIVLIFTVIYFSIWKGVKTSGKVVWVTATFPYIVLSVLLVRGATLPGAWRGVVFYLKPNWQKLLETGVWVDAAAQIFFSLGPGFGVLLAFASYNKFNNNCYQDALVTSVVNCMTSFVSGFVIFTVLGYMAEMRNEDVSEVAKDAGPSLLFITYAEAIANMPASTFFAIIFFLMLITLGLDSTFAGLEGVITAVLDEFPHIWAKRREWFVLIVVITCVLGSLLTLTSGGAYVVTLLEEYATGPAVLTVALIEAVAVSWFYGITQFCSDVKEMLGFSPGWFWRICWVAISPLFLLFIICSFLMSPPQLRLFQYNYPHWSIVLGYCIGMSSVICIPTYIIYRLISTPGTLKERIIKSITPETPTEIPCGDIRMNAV

[1] = system: batrachotoxin (BTX) binding site of the sodium channel; test: Affinity to the batrachotoxin (BTX) binding site of the sodium channel; conditions: rat cerebrocortex synaptosomes, test concentration not given

O=C(C1CCCCC1)N1CCC2(CC1)NCC(=O)N2CCOc1ccccc1 [Example 123, 8-Cyclohexanecarbonyl-1-(2-phenoxyethyl)-1,4,8-triazaspiro[4,5]decan-2-one]
Uptake (NA), rat, 10 μM, % inhibition (NA transporter): 36%

C=CCCC(=O)N1CCC2(CC1)NC(Cc1ccccc1)C(=O)N2C (centres unmarked) [Example 139, 3-Benzyl-1-methyl-8-pent-4-enoyl-1,4,8-triazaspiro[4,5]decan-2-one]
Uptake (NA), rat, 10 μM, % inhibition (NA transporter): 31%

COC(=O)c1ccc(CN2C(=O)CNC23CCN(C(=O)c2ccnc(Cl)c2)CC3)cc1 [Example 272, Methyl 4-[8-(2-Chloropyridin-4-earbonyl)-2-oxo-1,4,8-triazaspiro[4,5]dec-1-ylmethyl]benzoate]
Uptake (NA), rat, 10 μM, % inhibition (NA transporter): 31%

CCOC(=O)CN1C(=O)C(CCSC)NC12CCN(C(=O)c1ccccc1C(=O)OCc1ccccc1)CC2 (centres unmarked) [Example 332, Benzyl 2-[1-ethoxycarbonylmethyl-3-(2-methylsulfanylethyl)-2-oxo-1,4,8-triazaspiro[4,5]decan-8-carbonyl]benzoate]
Uptake (NA), rat, 10 μM, % inhibition (NA transporter): 36%

CC(C)CC1NC2(CCN(C(=O)COCc3ccccc3)CC2)NC1=O (centres unmarked) [Example 80, 8-(2-Benzyloxyacetyl)-3-isobutyl-1,4,8-triazaspiro[4,5]decan-2-one]
Uptake (NA), rat, 10 μM, % inhibition (NA transporter): 30%

CSCCC1NC2(CCN(C(=O)c3cccnc3Oc3ccccc3)CC2)N(C)C1=O (centres unmarked) [Example 120, 1-Methyl-3-(2-methylsulfanylethyl)-8-(2-phenoxypyridin-3-carbonyl)-1,4,8-triazaspiro[4,5]decan-2-one]
Uptake (NA), rat, 10 μM, % inhibition (NA transporter): 32%

CN1C(=O)C(Cc2ccccc2)NC12CCN(C(=O)c1ccc([N+](=O)[O-])cc1)CC2 (centres unmarked) [Example 238, 3-Benzyl-1-methyl-8-(4-nitrobenzoyl)-1,4,8-triazaspiro[4,5]decan-2-one]
Uptake (NA), rat, 10 μM, % inhibition (NA transporter): 31%

CC(C)C1NC2(CCN(C(=O)C=Cc3ccccc3Cl)CC2)N(CCOc2ccccc2)C1=O (centres unmarked) [Example 225, 8-[3-(2-Chlorophenyl)acryloyl]-3-isopropyl-1-(2-phenoxyethyl)-1,4,8-triazaspiro[4,5]decan-2-one]
inhibition at 1 µM (5-HT transporter; Table III): 32% | BTX inhibition ([1]; Table III): 55

COC(=O)c1ccc(CN2C(=O)C(C(C)C)NC23CCN(C(=O)c2ccc(C(F)(F)F)c(F)c2)CC3)cc1 (centres unmarked) [Example 204, Methyl 4-[8-(3-fluoro-4-trifluoromethylbenzoyl)-3-isopropyl-2-oxo-1,4,8-triazaspiro[4,5]dec-1-ylmethyl]benzoate]
inhibition at 1 µM (5-HT transporter; Table III): 42% | BTX inhibition ([1]; Table III): 44

Cc1nnsc1C(=O)N1CCC2(CC1)NC(Cc1ccccc1)C(=O)N2Cc1ccccc1 (centres unmarked) [Example 177, 1,3-Dibenzyl-8-(4-methyl[1,2,3]thiadiazole-5-carbonyl)-1,4,8-triazaspiro[4,5]decan-2-one]
inhibition at 1 µM (5-HT transporter; Table III): 79% | BTX inhibition ([1]; Table III): 30

CCC(C(=O)N1CCC2(CC1)NC(Cc1ccccc1)C(=O)N2Cc1ccccc1)c1ccccc1 (centres unmarked) [Example 237, 1,3-Dibenzyl-8-(2-phenylbutyryl)-1,4,8-triazaspiro[4,5]decan-2-one]
inhibition at 1 µM (5-HT transporter; Table III): 63% | BTX inhibition ([1]; Table III): 42

Cl.O=C(c1ccc2ccccc2c1)N1CCC2(CC1)N[C@@H](Cc1ccccc1)C(=O)N2Cc1ccccc1 [Example 59, 1,3-(S)-dibenzyl-8-(naphthalin-2-carbonyl)-1,4,8-triazaspiro[4,5]decan-2-one hydrochloride]
inhibition at 1 µM (5-HT transporter; Table II): 53% | BTX inhibition ([1]; Table II): 49

CCCCN1C(=O)C(Cc2ccccc2)NC12CCN(C(=O)c1ccc(I)cc1)CC2 (centres unmarked) [Example 207, 3-Benzyl-1-butyl-8-(4-Iodobenzoyl)-1,4,8-triazaspiro[4,5]decan-2-one]
inhibition at 1 µM (5-HT transporter; Table III): 76% | BTX inhibition ([1]; Table III): 57

CC(C)CC1NC2(CCN(C(=O)c3cc(C(C)(C)C)nn3C)CC2)N(Cc2cccc(C#N)c2)C1=O (centres unmarked) [Example 218, 3-[8-(5-tert-Butyl-2-methyl-2H-pyrazole-3-carbonyl)-3-isobutyl-2-oxo-1,4,8-triazaspiro[4,5]dec-1-ylmethyl]benzonitrile]
inhibition at 1 µM (5-HT transporter; Table III): 57% | BTX inhibition ([1]; Table III): 39

Cc1ccc(C(=O)N2CCC3(CC2)NC(CC(C)C)C(=O)N3Cc2c(Cl)cccc2Cl)c(F)c1F (centres unmarked) [Example 324, 1-(2,6-Dichlorobenzyl)-8-(2,3-difluoro-4-methylbenzoyl)-3-isobutyl-1,4,8-triazaspiro[4,5]decan-2-one]
inhibition at 1 µM (5-HT transporter; Table III): 31% | BTX inhibition ([1]; Table III): 62

C=CCN1C(=O)C(CCSC)NC12CCN(C(=O)c1cnn(-c3ccccc3)c1CCC)CC2 (centres unmarked) [Example 323, 1-Allyl-3-(2-methylsulfanylethyl)-8-(1-phenyl-5-propyl-1H-pyrazole-4-carbonyl)-1,4,8-triazaspiro[4,5]decan-2-one]
inhibition at 1 µM (5-HT transporter; Table III): 33% | BTX inhibition ([1]; Table III): 43

CC(C)CC1NC2(CCN(C(=O)c3ccc4nonc4c3)CC2)N(Cc2c(Cl)cccc2Cl)C1=O (centres unmarked) [Example 275, 8-(Benzo[1,2,5]oxadiazole-5-carbonyl)-1-(2,6-dichlorobenzyl)-3-isobutyl-1,4,8-triazaspiro[4,5]decan-2-one]
inhibition at 1 µM (5-HT transporter; Table III): 33% | BTX inhibition ([1]; Table III): 61

CCCc1ccc(C(=O)N2CCC3(CC2)NC(CC(C)C)C(=O)N3Cc2c(Cl)cccc2Cl)cc1 (centres unmarked) [Example 317, 1-(2,6-Dichlorobenzyl)-3-isobutyl-8-(4-propylbenzoyl)-1,4,8-triazaspiro[4,5]decan-2-one]
inhibition at 1 µM (5-HT transporter; Table III): 33% | BTX inhibition ([1]; Table III): 62

Cc1nc(C(F)(F)F)ccc1C(=O)N1CCC2(CC1)NC(C(C)C)C(=O)N2CCOc1ccccc1 (centres unmarked) [Example 167, 3-Isopropyl-8-(2-methyl-6-trifluoromethylpyridin-3-carbonyl)-1-(2-phenoxyethyl)-1,4,8-triazaspiro[4,5]decan-2-one]
inhibition at 1 µM (5-HT transporter; Table III): 52% | BTX inhibition ([1]; Table III): 38

CC(C)CC1NC2(CCN(C(=O)c3ccc(-c4ccccc4)cc3)CC2)N(Cc2ccc(F)cc2)C1=O (centres unmarked) [Example 101, 8-(Biphenyl-4-carbonyl)-1-(4-fluorobenzyl)-3-isobutyl-1,4,8-triazaspiro[4,5]decan-2-one]
inhibition at 1 µM (5-HT transporter; Table III): 33% | BTX inhibition ([1]; Table III): 78

CCCCCC(=O)N1CCC2(CC1)NC(C(C)C)C(=O)N2CCCC (centres unmarked) [Example 129, 1-Butyl-8-hexanoyl-3-isopropyl-1,4,8-triazaspiro[4,5]decan-2-one]
inhibition at 1 µM (5-HT transporter; Table III): 47% | BTX inhibition ([1]; Table III): 30

CCCc1c(C(=O)N2CCC3(CC2)NC(Cc2ccccc2)C(=O)N3CC(=O)OCC)cnn1-c1ccccc1 (centres unmarked) [Example 306, Ethyl [3-benzyl-2-oxo-8-(1-phenyl-5-propyl-1H-pyrazole-4-carbonyl)-1,4,8-triazaspiro[4,5]dec-1-yl]acetate]
inhibition at 1 µM (5-HT transporter; Table III): 85% | BTX inhibition ([1]; Table III): 68

C=CCN1C(=O)C(CCSC)NC12CCN(C(=O)c1cc(C(C)(C)C)nn1C)CC2 (centres unmarked) [Example 330, 1-Allyl-8-(5-tert-butyl-2-methyl-2H-pyrazole-3-carbonyl)-3-(2-methylsulfanylethyl)-1,4,8-triazaspiro[4,5]decan-2-one]
inhibition at 1 µM (5-HT transporter; Table III): 45% | BTX inhibition ([1]; Table III): 31

CCOC(=O)CN1C(=O)C(Cc2ccccc2)NC12CCN(C(=O)COCc1ccccc1)CC2 (centres unmarked) [Example 329, Ethyl [3-benzyl-8-(2-benzyloxyacetyl)-2-oxo-1,4,8-triazaspiro[4,5]dec-1-yl]acetate]
inhibition at 1 µM (5-HT transporter; Table III): 55% | BTX inhibition ([1]; Table III): 43

CSCCC1NC2(CCN(C(=O)CCC3CCCC3)CC2)N(Cc2ccccc2)C1=O (centres unmarked) [Example 221, 1-Benzyl-8-(3-cyclopentylpropionyl)-3-(2-methylsulfanylethyl)-1,4,8-triazaspiro[4,5]decan-2-one]
inhibition at 1 µM (5-HT transporter; Table III): 79% | BTX inhibition ([1]; Table III): 36

O=C(c1sccc1Cl)N1CCC2(CC1)NC(Cc1ccccc1)C(=O)N2Cc1ccccc1 (centres unmarked) [Example 172, 1,3-Dibenzyl-8-(3-chlorothiophene-2-carbonyl)-1,4,8-triazaspiro[4,5]decan-2-one]
inhibition at 1 µM (5-HT transporter; Table III): 76% | BTX inhibition ([1]; Table III): 49

Cc1cc(C)cc(CN2C(=O)C(CC(C)C)NC23CCN(C(=O)CN(C)C)CC3)c1 (centres unmarked) [Example 309, 8-(2-Dimethylaminoacetyl)-1-(3,5-dimethylbenzyl)-3-isobutyl-1,4,8-triazaspiro[4,5]decan-2-one]
inhibition at 1 µM (5-HT transporter; Table III): 43% | BTX inhibition ([1]; Table III): 82

O=C(C=Cc1ccccc1)N1CCC2(CC1)NC(Cc1ccccc1)C(=O)N2Cc1ccccc1 (centres unmarked) [Example 223, 1,3-Dibenzyl-8-(3-phenylacryloyl)-1,4,8-triazaspiro[4,5]decan-2-one]
inhibition at 1 µM (5-HT transporter; Table III): 49% | BTX inhibition ([1]; Table III): 62

CCCCC(=O)N1CCC2(CC1)NC(Cc1ccccc1)C(=O)N2CC(=O)OCC (centres unmarked) [Example 299, Ethyl (3-benzyl-2-oxo-8-pentanoyl-1,4,8-triazaspiro[4,5]dec-1-yl)acetate]
inhibition at 1 µM (5-HT transporter; Table III): 66% | BTX inhibition ([1]; Table III): 36

O=C(c1ccc(-c2ccccc2)cc1)N1CCC2(CC1)NCC(=O)N2Cc1ccccc1F [Example 262, 8-(Biphenyl-4-carbonyl)-1-(2-fluorobenzyl)-1,4,8-triazaspiro[4,5]decan-2-one]
inhibition at 1 µM (5-HT transporter; Table III): 60% | BTX inhibition ([1]; Table III): 70

COc1ccc(CC(=O)N2CCC3(CC2)NC(Cc2ccccc2)C(=O)N3C)cc1 (centres unmarked) [Example 176, 3-Benzyl-8-[2-(4-methoxyphenyl)acetyl]-1-methyl-1,4,8-triazaspiro[4,5]decan-2-one]
inhibition at 1 µM (5-HT transporter; Table III): 37% | BTX inhibition ([1]; Table III): 30

CCOC(=O)CN1C(=O)C(Cc2ccccc2)NC12CCN(C(=O)C1CC1)CC2 (centres unmarked) [Example 293, Ethyl (3-benzyl-8-cyclopropanecarbonyl-2-oxo-1,4,8-triazaspiro[4,5]dec-1-yl)acetate]
inhibition at 1 µM (5-HT transporter; Table III): 55% | BTX inhibition ([1]; Table III): 31

COc1ccc(OC)c(CC(=O)N2CCC3(CC2)NC(CCSC)C(=O)N3Cc2ccccc2F)c1 (centres unmarked) [Example 195, 8-[2-(2,5-Dimethoxyphenyl)acetyl]-1-(2-fluorobenzyl)-3-(2-methylsulfanylethyl)-1,4,8-triazaspiro[4,5]decan-2-one]
inhibition at 1 µM (5-HT transporter; Table III): 50% | BTX inhibition ([1]; Table III): 34
